A word on the IC50: it is the concentration that gives 50% inhibition. By EC50 is commonly meant the concentration needed to bring the measured effect to its halfway point.

Where two headings read alike, the source gives them in different places.

The values that follow come from paper PMC7824859, “BmK NSPK, a Potent Potassium Channel Inhibitor from Scorpion Buthus martensii Karsch, Promotes Neurite Outgrowth via NGF/TrkA Signaling Pathway” (Toxins, 2021).

Test [1] relates to spinal cord neurons (SCNs). The experiment in a line: Neurite outgrowth, MAP2 immunocytochemistry in SCNs. It counts as cell-based, C57BL/6 mice. As for the experimental part: (§1) SCN cultures were performed as described previously. The dissociated neurons were planted into poly-L-lysine-coated 35 mm Petri dishes, 96-well plates at densities of 2 × 10^3 cells/dish for patch clamp, 2.25 × 10^5 and 2 × 10^3 cells/well for Ca^2+ imaging and neurite outgrowth experiments, respectively. Cells at 6–8 DIVs (days in vitro) were used to measure K^+ and Na^+ currents, membrane potential, or intracellular Ca^2+ concentration ([Ca^2+]i).
Immunocytochemistry was performed as described previously. After fixation, permeabilization, and blocking, neurons were incubated with primary antibody against MAP2 (1:1000) overnight at 4 °C and Alexa Fluor 488-conjugated goat anti-rabbit secondary antibody (1:1000) for 1 h at room temperature (RT), respectively. Hoechst 33,342 (1.6 μg/mL) was added into each well and incubated for 20 min to stain the nuclei. The images were captured by an eclipse inverted fluorescence microscope (Nikon, Tokyo, Japan). Neurites were manually tracked using ImageJ software (FIJI, version 1.51 g, NIH, Bethesda, MD, USA). Only the neurons with total neurite length ≥50 μm were used for quantification. The experiment was performed double blindly.

The subject of test [2] is voltage-gated sodium channels (VGSCs), Na+ currents in SCNs. Nature of the test: Na+ currents, whole-cell patch clamp in SCNs. It counts as cell-based, C57BL/6 mice. The protocol: as §1
(§2) Current-clamp recordings can provide useful information about the contribution of a channel to membrane potential. Membrane potentials, Na^+ and K^+ currents in SCNs (6–8 DIVs), were recorded using whole-cell patch clamp using an EPC-10 amplifier and PatchMaster software (HEKA, Pfalz, Germany). Pipettes were pulled from 1.5 mm capillary tubing using a P-1000 puller (Sutter Instrument, Novato, CA, USA). The pipette resistance was 2–4 MΩ.
(§3) For current-clamp recordings, to record changes in membrane potential, patch pipettes were filled with intracellular solution containing the following (in mM): KCl 140, MgCl2 5, CaCl2 2.5, EGTA 5, ATP 4, GTP 0.3, and HEPES 10 (pH adjusted to 7.3 with KOH). The external solution contained the following (in mM): NaCl 140, MgCl2 1, KCl 5, CaCl2 2, glucose 10, and HEPES 10 (pH adjusted to 7.3 with NaOH). The membrane potentials were recorded by a 0 pA input current with a duration of 1 s. For voltage-clamp recordings, to record potassium currents, patch pipettes were filled with an internal solution containing (in mM): KCl 140, CaCl2 1, MgCl2 2.5, HEPES 10, EGTA 11, and ATP 4, and pH was adjusted to 7.2 with KOH. Cells were bathed in an external solution containing the following (in mM): choline chloride 150, KCl 5, MgCl2 1, HEPES 10, D-glucose 10, and NMDG 2, and pH was adjusted to 7.4 with KOH. […] Data were collected and analyzed using PatchMaster (HEKA Electronics, Pfalz, Germany) and SigmaPlot (version 10.3, Sigma-Aldrich). […]

For test [3], the system named is spinal cord neurons (SCNs), membrane potential. Nature of the test: Membrane potential, whole-cell current-clamp recording in SCNs. Format: cell-based, C57BL/6 mice. As for the experimental part: as §1, §2
For current-clamp recordings, to record changes in membrane potential, patch pipettes were filled with intracellular solution containing the following (in mM): KCl 140, MgCl2 5, CaCl2 2.5, EGTA 5, ATP 4, GTP 0.3, and HEPES 10 (pH adjusted to 7.3 with KOH). […] The membrane potentials were recorded by a 0 pA input current with a duration of 1 s. […] Data were collected and analyzed using PatchMaster (HEKA Electronics, Pfalz, Germany) and SigmaPlot (version 10.3, Sigma-Aldrich). […]

For test [4], the system named is nerve growth factor (NGF) release in SCNs. The experiment in a line: NGF release into culture medium of SCNs, ELISA. Format: cell-based, C57BL/6 mice. The note with it: 10 nM, n = 4. The protocol:
The NGF levels in the culture medium were determined by enzyme-linked immunosorbent assay (ELISA) kits according to the manufacturer’s instructions.

Test [5] deals with Kv channels, delayed-rectifier (ID) currents in SCNs. Nature of the test: Sustained delayed-rectifier K+ current ID, whole-cell patch clamp in SCNs. It counts as cell-based, C57BL/6 mice. As for the experimental part: as §1, §2, §3
(§4) All data were presented as mean ± SEM. […] Statistical significance between different groups was calculated using an ANOVA and, where appropriate, a Dunnett′s multiple comparison test. […]
(In general: Patch clamp records ionic current or voltage across a cell membrane.)

Test [6] deals with Kv channels, transient (IA) currents in SCNs. The experiment in a line: Transient K+ current IA, whole-cell patch clamp in SCNs. Format: cell-based, C57BL/6 mice. As for the experimental part: as §1, §2, §3, §4
Test [7] relates to protein kinase B (Akt) phosphorylation in SCNs. The experiment in a line: Akt phosphorylation in SCNs, Western blot. Format: cell-based, C57BL/6 mice. The note with it: 30 nM, n = 4. As for the experimental part:
Equal amounts (30 μg) of cell lysates were loaded onto a 10% SDS-PAGE gel and transferred to a nitrocellulose membrane by electroblotting. After blocking, the blots were incubated with primary antibodies against p-Akt (1:1000) overnight at 4 °C and then incubated with the IRDye (680 RD or 800 CW)-labeled secondary antibodies (1:10,000) for 1 h at RT. The membranes were scanned and densitometry was quantified using LI-COR Odyssey Infrared Imaging System and its application software (version 2.1, LI-COR Biotechnology). The membranes were stripped with stripping buffer (LI-COR Biotechnology) and reblotted for analysis of the expression of Akt. Beta-tubulin (1:10,000) was used as a loading control.
A general note: Immunoblotting shows a protein as a band on a membrane.

Test [8] has as its system Kv channels, outward K+ currents (IK) in SCNs. Nature of the test: Outward K+ current IK (IA + ID), whole-cell patch clamp in SCNs. It counts as cell-based, C57BL/6 mice. The protocol:
as §1, §2
For current-clamp recordings, to record changes in membrane potential, patch pipettes were filled with intracellular solution containing the following (in mM): KCl 140, MgCl2 5, CaCl2 2.5, EGTA 5, ATP 4, GTP 0.3, and HEPES 10 (pH adjusted to 7.3 with KOH). The external solution contained the following (in mM): NaCl 140, MgCl2 1, KCl 5, CaCl2 2, glucose 10, and HEPES 10 (pH adjusted to 7.3 with NaOH). The membrane potentials were recorded by a 0 pA input current with a duration of 1 s. For voltage-clamp recordings, to record potassium currents, patch pipettes were filled with an internal solution containing (in mM): KCl 140, CaCl2 1, MgCl2 2.5, HEPES 10, EGTA 11, and ATP 4, and pH was adjusted to 7.2 with KOH. Cells were bathed in an external solution containing the following (in mM): choline chloride 150, KCl 5, MgCl2 1, HEPES 10, D-glucose 10, and NMDG 2, and pH was adjusted to 7.4 with KOH. To record sodium currents, patch pipettes were filled with an internal solution containing the following (in mM): CsF 135, HEPES 5, and NaCl 10, and pH was adjusted to 7.2 with CsOH. Cells were bathed in external solution containing the following (in […]): NaCl 30, MgCl2 1, CaCl2 1.8, CsCl 5, D-glucose 25, KCl 5, HEPES 5, TEACl 90, and KCl 5, and pH was adjusted to 7.4 with NaOH. Capacitance and series resistance were compensated using computer-controlled circuitry of the amplifier. The outward potassium currents (IK), which contain both transient (IA) and sustained delayed-rectifier (ID) components, were elicited by a series of depolarizing pulses from −110 mV to the potentials ranged from −60 to +80 mV in a 10 mV increment. To record the ID currents, voltages were stepped to the potentials ranged from −60 to +80 mV in a 10 mV increment from a 200 ms pre-depolarization potential of −40 mV that inactivated IA currents. IA currents were obtained by subtracting ID currents from IK currents. Na^+ currents were elicited by depolarization steps from a holding potential of −100 mV to +45 mV in a 5 mV increment. Data were collected and analyzed using PatchMaster (HEKA Electronics, Pfalz, Germany) and SigmaPlot (version 10.3, Sigma-Aldrich). Concentration–response curves were fitted using the Hill equation: Inor= C + A/[1 + ([BmK NSPK]/EC50)^p] […]
as §4

Test [9] relates to spinal cord neurons (SCNs). Nature of the test: Spontaneous calcium oscillation (SCO) measurement, FLIPR Tetra, primary cultured spinal cord neurons. It counts as cell-based, C57BL/6 mice. The note with it: 6-8 DIV, N = 4 wells; for EC50: primary cultured SCNs, FLIPR Tetra, Hill slope = 1.0. As for the experimental part:
as §1
The intracellular Ca^2+ concentration [Ca^2+]i of SCNs was measured using FLIPR^Tetra® system (Molecular Devices, Sunnyvale, CA, USA) as described previously.
All data were presented as mean ± SEM. Graphing and data analysis were performed using GraphPad Prism software (Version 6.0, San Diego, CA, USA). Concentration–response curves were fitted by a nonlinear logistic equation. The IC50 values and 95% confidence intervals (CI) were determined by nonlinear regression using GraphPad Prism software. Statistical significance between different groups was calculated using an ANOVA and, where appropriate, a Dunnett′s multiple comparison test. A p-value below 0.05 was considered statistically significant.

In another test the test system is PC12 cells. Particulars: via TrkA receptors; ref [38]; cited from earlier work.
The next test deals with sensory neurons. Particulars: via TrkA receptors; ref [39]; cited from earlier work.

With `Cn1cc(/C=C2\C(=O)Nc3cccnc32)c2ccccc21` [GW 441756, reference compound], in test [1] (GW 441756 1 μM added 30 min before BmK NSPK (10 nM), 48 h, p < 0.01 vs. BmK NSPK), the “Effect on BmK NSPK-induced neurite outgrowth” value is reported as “abolished BmK NSPK-induced neurite outgrowth”.
In the case of `NC1=N[C@H](O)[C@H]2[C@H]3O[C@]4(O)O[C@@H]([C@@H](O)[C@@]2(N1)[C@@H]4O)[C@]3(O)CO` [tetrodotoxin, reference compound], the “Effect on Na+ currents” value in test [2] is listed as “suppressed the Na^+ currents”.
In the case of “BmK NSPK: new short-chain scorpion peptide purified from Buthus martensii Karsch venom, Kv channel inhibitor, sequence by Edman degradation (VGKNVICIHSGQCLIPCIDAGMRFGICKNGICDCTPKG)”, the “Apparent affinity for membrane depolarization (and SCO increase)” value in [3] (SCN cultures, discussion wording) is on record as “low apparent nanomolar affinity”. For the same compound, the “Effect on membrane potential” value in test [3] (SCNs, 6-8 DIV, 0 pA input, whole-cell current clamp) is listed as “concentration-dependent membrane depolarization”. Further, in test [4], the “Duration of NGF release” value is “at least 8 h”. Further, in test [4] (p < 0.05 vs. Veh), the “Increase in NGF release” value is ~ 50%. Further, the “Effect on ID currents” value in [5] (300 nM, potentials −60 to +80 mV after 200 ms pre-depolarization at −40 mV) was “inhibited ID currents elicited by a series of depolarization potentials with voltage dependence”. Further, the “Maximal inhibition of ID currents” value in [5] (Figure 4J) is ~ 43%. In addition, the IC50 amounted to 2.24 nM in [5] (depolarization from -40 mV to +70 mV, 95% CI 0.68–7.44 nM, Hill slope = −0.86, N = 4–5 neurons, read-out: IC50, suppression of ID currents); 0.93 nM in test [6] (IA = IK minus ID, 95% CI 0.41–2.13 nM, Hill slope = −1.27, N = 4–5 neurons, read-out: IC50, suppression of IA currents); 2.42 nM in test [8] (depolarization from -110 mV to +70 mV, 95% CI 0.68–8.61 nM, Hill slope = −0.86, N = 4–5 neurons, read-out: IC50, suppression of IK currents). In [1] (48 h exposure commencing 5 h post-plating), the “Concentration of maximal stimulation of neurite extension” value was ~ 10 nM. Also, the “Effect on neurite extension” value in test [1] (48 h exposure commencing 5 h post-plating, MAP2 staining) is reported as “stimulated neurite extension in cultured SCNs in a nonmonotonic manner”. Besides, the “Effect on Na+ currents” value in [2] (1000 nM, holding −100 mV to +45 mV in 5 mV increments, N = 4–5 neurons) is “no effect on the Na^+ currents”. Besides, in test [2] (discussion wording), the “Effect on VGSCs” value is “little effect on VGSCs”. Further, the “Effect on IA currents” value in test [6] (300 nM, each depolarizing potential) is recorded as “suppressed IA currents at each depolarizing potential”. The “Maximal inhibition of IA currents” value in test [6] (Figure 4J) was ~ 75%. Further, the “Duration of Akt phosphorylation increase” value in test [7] is no less than 30 min. Besides, the “Onset of Akt phosphorylation increase” value in [7] is on record as no more than 5 min. Besides, in [7] (p < 0.01 vs. Veh), the “Phosphorylated levels of Akt” value was “rapidly increased phosphorylated levels of Akt”. The “Voltage dependence of IK inhibition” value in test [8] (300 nM) is recorded as “voltage-dependent”. In test [8] (300 nM, depolarizing potentials −60 to +80 mV from holding −110 mV), the “Effect on IK currents” value is reported as “inhibited the IK currents at all depolarized potentials”. The “Potency on outward potassium channel currents” value in test [8] (discussion wording, SCNs) was “single-digit nanomolar concentrations”. Moreover, in [8] (highest concentration (100 nM)), the “Completeness of inhibition of IK, IA and ID currents” value is listed as “incomplete even at the highest concentration (100 nM)”. For the same compound, in test [9] (SCNs), the “Effect on amplitude and frequency of SCOs” value was “rapid and sustained increase in both the amplitude and frequency of SCOs”. Also, the EC50 in test [9] (95% CI 2.22–17.4 nM, read-out: EC50 for increase in SCO frequency) was 6.22 nM; in [9] (95% CI 4.00–45.1 nM, read-out: EC50 for increase in SCO amplitude), 13.4 nM.
Regarding nerve growth factor [NGF], the “Effect on neurite extension” value in the test on PC12 cells and in the test on sensory neurons was “enhance the neurite extension” each time.
